Source: PubChem BioAssay AID1963866 (Molecular Pharmacology Branch, DTP, NCI, 2024)
pIC50: −log10 of the molar value.

System: PDC KRAS tumor spheroids with HUVEC/MSC, viability
Assay: Anticancer human tumor 349418-098-R-PDC patient-derived lung adenocarcinoma cell line growth inhibition [KRAS2]
Conditions: for pIC50: curve of first compound; for viability, T/C: stronger effect = lower value
Outline: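 Combination screen of spheroid viability in tumor-cell co-cultures with endothelial (HUVEC) and mesenchymal stem cell stroma. Each agent was tested in half-log dilutions, topping at clinical Cmax or at 10 microM without a known Cmax.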

[1] = second compound 0.1 µM, first compound 0.000316 µM
[2] = second compound 0.1 µM, first compound 0.001 µM
[3] = second compound 0.1 µM, first compound 0.00316 µM
[4] = second compound 0.1 µM, first compound 0.01 µM
[5] = second compound 0.1 µM, first compound 0.0316 µM
[6] = second compound 0.316 µM, first compound 0.000316 µM
[7] = second compound 0.316 µM, first compound 0.001 µM
[8] = second compound 0.316 µM, first compound 0.00316 µM
[9] = second compound 0.316 µM, first compound 0.01 µM
[10] = second compound 0.316 µM, first compound 0.0316 µM
[11] = second compound 1 µM, first compound 0.000316 µM
[12] = second compound 1 µM, first compound 0.001 µM
[13] = second compound 1 µM, first compound 0.00316 µM
[14] = second compound 1 µM, first compound 0.01 µM
[15] = second compound 1 µM, first compound 0.0316 µM
[16] = second compound 3.16 µM, first compound 0.000316 µM
[17] = second compound 3.16 µM, first compound 0.001 µM
[18] = second compound 3.16 µM, first compound 0.00316 µM
[19] = second compound 3.16 µM, first compound 0.01 µM
[20] = second compound 3.16 µM, first compound 0.0316 µM
[21] = second compound 10 µM, first compound 0.000316 µM
[22] = second compound 10 µM, first compound 0.001 µM
[23] = second compound 10 µM, first compound 0.00316 µM
[24] = second compound 10 µM, first compound 0.01 µM
[25] = second compound 10 µM, first compound 0.0316 µM
[26] = second compound 0.1 µM, first compound 0.1 µM
[27] = second compound 0.316 µM, first compound 0.1 µM
[28] = second compound 1 µM, first compound 0.1 µM
[29] = second compound 3.16 µM, first compound 0.1 µM
[30] = second compound 10 µM, first compound 0.1 µM
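Also: spheroids exposed to compounds for seven days before readout.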

CC(=O)Nc1cccc(-n2c(=O)n(C3CC3)c(=O)c3c(Nc4ccc(I)cc4F)n(C)c(=O)c(C)c32)c1 + CC1OCC2(CCN(c3cnc(Sc4ccnc(N)c4Cl)c(N)n3)CC2)C1N
pIC50 (second compound 0.1 µM): > 10.00 | pIC50 (second compound 0.316 µM): > 10.00 | pIC50 (second compound 1 µM): > 10.00 | pIC50 (second compound 3.16 µM): > 10.00 | pIC50 (second compound 10 µM): > 10.00 | viability, T/C (second compound 0.1 µM, first compound 0.0001 µM): 25% | viability, T/C [1]: 10.6% | viability, T/C [2]: 8.26% | viability, T/C [3]: 7.14% | viability, T/C [4]: 6.71% | viability, T/C [5]: 4.89% | viability, T/C (second compound 0.316 µM, first compound 0.0001 µM): 13.9% | viability, T/C [6]: 9.13% | viability, T/C [7]: 6.31% | viability, T/C [8]: 6.44% | viability, T/C [9]: 5.73% | viability, T/C [10]: 4.97% | viability, T/C (second compound 1 µM, first compound 0.0001 µM): 12.5% | viability, T/C [11]: 6.75% | viability, T/C [12]: 5.3% | viability, T/C [13]: 5.39% | viability, T/C [14]: 5.41% | viability, T/C [15]: 4.31% | viability, T/C (second compound 3.16 µM, first compound 0.0001 µM): 16.2% | viability, T/C [16]: 6.1% | viability, T/C [17]: 5.56% | viability, T/C [18]: 4.05% | viability, T/C [19]: 3.76% | viability, T/C [20]: 3.53% | viability, T/C (second compound 10 µM, first compound 0.0001 µM): 18.9% | viability, T/C [21]: 6.01% | viability, T/C [22]: 3.71% | viability, T/C [23]: 3.71% | viability, T/C [24]: 3.6% | viability, T/C [25]: 3.62%

CC(=O)OC12COC1CC(O)C1(C)C(=O)C(O)C3=C(C)C(OC(=O)C(O)C(NC(=O)OC(C)(C)C)c4ccccc4)CC(O)(C(OC(=O)c4ccccc4)C21)C3(C)C (stereo not given) + CC1OCC2(CCN(c3cnc(Sc4ccnc(N)c4Cl)c(N)n3)CC2)C1N
pIC50 (second compound 0.1 µM): > 8.00 | pIC50 (second compound 0.316 µM): > 8.00 | pIC50 (second compound 1 µM): > 8.00 | pIC50 (second compound 3.16 µM): > 8.00 | pIC50 (second compound 10 µM): > 8.00 | viability, T/C [4]: 18% | viability, T/C [5]: 28.1% | viability, T/C [26]: 21.9% | viability, T/C (second compound 0.1 µM, first compound 0.316 µM): 27.2% | viability, T/C (second compound 0.1 µM, first compound 1 µM): 28.7% | viability, T/C (second compound 0.1 µM, first compound 3.16 µM): 36.1% | viability, T/C [9]: 21.6% | viability, T/C [10]: 22.9% | viability, T/C [27]: 29.1% | viability, T/C (second compound 0.316 µM, first compound 0.316 µM): 27.9% | viability, T/C (second compound 0.316 µM, first compound 1 µM): 29.7% | viability, T/C (second compound 0.316 µM, first compound 3.16 µM): 35.2% | viability, T/C [14]: 22.4% | viability, T/C [15]: 26.9% | viability, T/C [28]: 27.5% | viability, T/C (second compound 1 µM, first compound 0.316 µM): 27.6% | viability, T/C (second compound 1 µM, first compound 1 µM): 33.9% | viability, T/C (second compound 1 µM, first compound 3.16 µM): 43.5% | viability, T/C [19]: 21.5% | viability, T/C [20]: 28.4% | viability, T/C [29]: 22.5% | viability, T/C (second compound 3.16 µM, first compound 0.316 µM): 25.4% | viability, T/C (second compound 3.16 µM, first compound 1 µM): 26% | viability, T/C (second compound 3.16 µM, first compound 3.16 µM): 28.3% | viability, T/C [24]: 19.9% | viability, T/C [25]: 24.5% | viability, T/C [30]: 28.3% | viability, T/C (second compound 10 µM, first compound 0.316 µM): 24.1% | viability, T/C (second compound 10 µM, first compound 1 µM): 31.7% | viability, T/C (second compound 10 µM, first compound 3.16 µM): 38.5%

CN(C)C/C=C/C(=O)Nc1cc2c(Nc3ccc(F)c(Cl)c3)ncnc2cc1O[C@H]1CCOC1 + CC1OCC2(CCN(c3cnc(Sc4ccnc(N)c4Cl)c(N)n3)CC2)C1N
pIC50 (second compound 0.1 µM): < 7.00 | pIC50 (second compound 0.316 µM): < 7.00 | pIC50 (second compound 1 µM): < 7.00 | pIC50 (second compound 3.16 µM): < 7.00 | pIC50 (second compound 10 µM): < 7.00 | viability, T/C [1]: 84.1% | viability, T/C [2]: 95.7% | viability, T/C [3]: 105% | viability, T/C [4]: 114% | viability, T/C [5]: 119% | viability, T/C [26]: 103% | viability, T/C [6]: 106% | viability, T/C [7]: 105% | viability, T/C [8]: 109% | viability, T/C [9]: 110% | viability, T/C [10]: 117% | viability, T/C [27]: 115% | viability, T/C [11]: 92.3% | viability, T/C [12]: 111% | viability, T/C [13]: 97.4% | viability, T/C [14]: 107% | viability, T/C [15]: 116% | viability, T/C [28]: 105% | viability, T/C [16]: 99.1% | viability, T/C [17]: 107% | viability, T/C [18]: 105% | viability, T/C [19]: 102% | viability, T/C [20]: 96% | viability, T/C [29]: 88.1% | viability, T/C [21]: 99.2% | viability, T/C [22]: 117% | viability, T/C [23]: 108% | viability, T/C [24]: 110% | viability, T/C [25]: 104% | viability, T/C [30]: 95.8%
